{"source": "patent US12162890B2", "about": "(Novartis AG, priority 2015, dated 2024)"}
{"molecular_target": "HEK293 cells with stable expression of the GRIN1 gene and tetracycline-inducible expression of the GRIN2B gene (NMDA receptor, NR2B) (Homo sapiens, UniProt Q13224)", "sequence (Q13224 27-1484, other chains not shown)": "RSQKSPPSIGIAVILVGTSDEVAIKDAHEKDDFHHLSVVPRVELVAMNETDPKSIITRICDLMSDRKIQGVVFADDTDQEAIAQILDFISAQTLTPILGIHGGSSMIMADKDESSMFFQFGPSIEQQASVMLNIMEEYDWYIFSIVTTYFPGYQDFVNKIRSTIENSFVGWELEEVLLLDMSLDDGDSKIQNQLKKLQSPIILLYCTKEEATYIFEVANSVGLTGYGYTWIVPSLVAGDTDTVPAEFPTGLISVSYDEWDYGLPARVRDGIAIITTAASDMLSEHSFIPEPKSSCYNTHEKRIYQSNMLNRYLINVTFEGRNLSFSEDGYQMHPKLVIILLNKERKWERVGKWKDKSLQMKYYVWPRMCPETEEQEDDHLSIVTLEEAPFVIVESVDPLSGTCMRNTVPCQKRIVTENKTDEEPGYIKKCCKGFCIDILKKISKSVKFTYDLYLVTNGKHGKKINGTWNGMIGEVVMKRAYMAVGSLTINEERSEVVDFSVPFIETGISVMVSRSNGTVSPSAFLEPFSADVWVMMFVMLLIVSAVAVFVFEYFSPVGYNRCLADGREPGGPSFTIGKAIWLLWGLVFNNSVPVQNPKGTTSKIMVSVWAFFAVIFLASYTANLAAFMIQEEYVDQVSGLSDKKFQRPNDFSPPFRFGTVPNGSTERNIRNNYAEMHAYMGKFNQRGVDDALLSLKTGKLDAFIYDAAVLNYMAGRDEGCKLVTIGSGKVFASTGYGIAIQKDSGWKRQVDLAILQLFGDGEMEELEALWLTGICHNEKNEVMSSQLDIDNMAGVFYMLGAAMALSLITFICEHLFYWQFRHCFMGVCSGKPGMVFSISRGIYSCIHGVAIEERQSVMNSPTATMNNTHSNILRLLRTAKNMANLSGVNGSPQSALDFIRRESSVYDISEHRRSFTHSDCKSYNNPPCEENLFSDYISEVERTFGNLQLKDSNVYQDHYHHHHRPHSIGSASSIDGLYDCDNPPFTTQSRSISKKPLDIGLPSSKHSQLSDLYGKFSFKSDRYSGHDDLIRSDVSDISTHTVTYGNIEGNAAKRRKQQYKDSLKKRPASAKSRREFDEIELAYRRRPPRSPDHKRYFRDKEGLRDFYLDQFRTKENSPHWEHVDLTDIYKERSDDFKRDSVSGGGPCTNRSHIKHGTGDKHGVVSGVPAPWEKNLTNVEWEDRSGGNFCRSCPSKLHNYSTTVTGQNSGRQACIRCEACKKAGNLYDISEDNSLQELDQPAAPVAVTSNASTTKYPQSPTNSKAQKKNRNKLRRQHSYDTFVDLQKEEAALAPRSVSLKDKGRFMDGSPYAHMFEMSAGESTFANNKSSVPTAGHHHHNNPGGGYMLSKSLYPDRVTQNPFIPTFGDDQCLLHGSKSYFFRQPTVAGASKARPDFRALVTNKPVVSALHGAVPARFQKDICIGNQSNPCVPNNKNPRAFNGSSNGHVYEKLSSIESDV", "test": "Fluo-8 Ca2+ flux assay: reversal of Ro 25-6981-mediated suppression of the Ca2+ response to co-agonist (glutamate/glycine); also: test concentration or dose not given here", "format": "cell-based", "details": "reversal of the Ro 25-6981 suppression of the Ca2+ response to co-agonist (glutamate/glycine)", "units": {"Response Recovered (%)": "%"}}
{"smiles": "O=C(Cn1ccn2ccc(-c3ccc(F)c(Cl)c3)c2c1=O)N1CC(F)(C2CC2)C1", "note": "[Example 398, 8-(3-chloro-4-fluorophenyl)-2-(2-(3-cyclopropyl-3-fluoroazetidin-1-yl)-2-oxoethyl)pyrrolo[1,2-a]pyrazin-1(2H)-one]", "Response Recovered (%)": 43}
{"smiles": "O=C(Cn1ccn2ccc(-c3ccc(F)c(Cl)c3)c2c1=O)N1CC(F)(c2ccccc2)C1", "note": "[Example 399, 8-(3-chloro-4-fluorophenyl)-2-(2-(3-fluoro-3-phenylazetidin-1-yl)-2-oxoethyl)pyrrolo[1,2-a]pyrazin-1(2H)-one]", "Response Recovered (%)": 1.5}
{"smiles": "CCC1(F)CN(C(=O)Cn2ccn3ccc(-c4ccc(F)c(Cl)c4)c3c2=O)C1", "note": "[Example 400, 8-(3-chloro-4-fluorophenyl)-2-(2-(3-ethyl-3-fluoroazetidin-1-yl)-2-oxoethyl)pyrrolo[1,2-a]pyrazin-1(2H)-one]", "Response Recovered (%)": 97}
{"smiles": "CC1(F)CN(C(=O)Cn2ccn3ccc(-c4ccc(F)c(C(F)(F)F)c4)c3c2=O)C1", "note": "[Example 401, 8-(4-fluoro-3-(trifluoromethyl)phenyl)-2-(2-(3-fluoro-3-methylazetidin-1-yl)-2-oxoethyl)pyrrolo[1,2-a]pyrazin-1(2H)-one]", "Response Recovered (%)": 160}
{"smiles": "O=C(Cn1ccn2ccc(-c3ccc(F)c(Cl)c3)c2c1=O)N1CC(F)(CF)C1", "note": "[Example 402, 8-(3-chloro-4-fluorophenyl)-2-(2-(3-fluoro-3-(fluoromethyl)azetidin-1-yl)-2-oxoethyl)pyrrolo[1,2-a]pyrazin-1(2H)-one]", "Response Recovered (%)": 130}
{"smiles": "O=C(Cn1ccn2ccc(-c3ccc(Cl)c(Cl)c3)c2c1=O)N1CC(F)(CF)C1", "note": "[Example 403, 8-(3,4-dichlorophenyl)-2-(2-(3-fluoro-3-(fluoromethyl)azetidin-1-yl)-2-oxoethyl)pyrrolo[1,2-a]pyrazin-1(2H)-one]", "Response Recovered (%)": 130}
{"smiles": "CC1(F)CN(C(=O)Cn2ccn3ccc(-c4cnc(Cl)c(Cl)c4)c3c2=O)C1", "note": "[Example 404, 8-(5,6-dichloropyridin-3-yl)-2-(2-(3-fluoro-3-methylazetidin-1-yl)-2-oxoethyl)pyrrolo[1,2-a]pyrazin-1(2H)-one]", "Response Recovered (%)": 58}
{"smiles": "CCC1(F)CN(C(=O)Cn2ccn3ccc(-c4cnc(Cl)c(Cl)c4)c3c2=O)C1", "note": "[Example 405, 8-(5,6-dichloropyridin-3-yl)-2-(2-(3-ethyl-3-fluoroazetidin-1-yl)-2-oxoethyl)pyrrolo[1,2-a]pyrazin-1(2H)-one]", "Response Recovered (%)": 61}
{"smiles": "O=C(Cn1ccn2ccc(-c3cnc(Cl)c(Cl)c3)c2c1=O)N1CC(F)(CF)C1", "note": "[Example 406, 8-(5,6-dichloropyridin-3-yl)-2-(2-(3-fluoro-3-(fluoromethyl)azetidin-1-yl)-2-oxoethyl)pyrrolo[1,2-a]pyrazin-1(2H)-one]", "Response Recovered (%)": 85}
{"smiles": "O=C(Cn1ccn2ccc(-c3ccc(F)c(C(F)(F)F)c3)c2c1=O)N1CC(F)(CF)C1", "note": "[Example 407, 2-(2-(3-fluoro-3-(fluoromethyl)azetidin-1-yl)-2-oxoethyl)-8-(4-fluoro-3-(trifluoromethyl)phenyl)pyrrolo[1,2-a]pyrazin-1(2H)-one]", "Response Recovered (%)": 130}
{"smiles": "Cc1cc(-c2ccn3ccn(CC(=O)N4CC(C)(F)C4)c(=O)c23)cnc1Cl", "note": "[Example 408, 8-(6-chloro-5-methylpyridin-3-yl)-2-(2-(3-fluoro-3-methylazetidin-1-yl)-2-oxoethyl)pyrrolo[1,2-a]pyrazin-1(2H)-one]", "Response Recovered (%)": 51}
{"smiles": "Cc1cc(-c2ccn3ccn(CC(=O)N4CC(F)(CF)C4)c(=O)c23)cnc1Cl", "note": "[Example 409, 8-(6-chloro-5-methylpyridin-3-yl)-2-(2-(3-fluoro-3-(fluoromethyl)azetidin-1-yl)-2-oxoethyl)pyrrolo[1,2-a]pyrazin-1(2H)-one]", "Response Recovered (%)": 33}
{"smiles": "CCC1(F)CN(C(=O)Cn2ccn3ccc(-c4cnc(Cl)c(C)c4)c3c2=O)C1", "note": "[Example 410, 8-(6-chloro-5-methylpyridin-3-yl)-2-(2-(3-ethyl-3-fluoroazetidin-1-yl)-2-oxoethyl)pyrrolo[1,2-a]pyrazin-1(2H)-one]", "Response Recovered (%)": 34}
{"smiles": "Cc1cn(CC(=O)N2CCC(F)C2)c(=O)c2c(-c3ccc(F)c(C(F)(F)F)c3)ccn12", "note": "(centres unmarked) [Example 411, 8-(4-fluoro-3-(trifluoromethyl)phenyl)-2-(2-(3-fluoropyrrolidin-1-yl)-2-oxoethyl)-4-methylpyrrolo[1,2-a]pyrazin-1(2H)-one]", "Response Recovered (%)": 59}
{"smiles": "Cc1cn(CC(=O)N2CCC(F)C2)c(=O)c2c(-c3ccc(F)c(C(F)(F)F)c3)cc(Br)n12", "note": "(centres unmarked) [Example 412, 6-bromo-8-(4-fluoro-3-(trifluoromethyl)phenyl)-2-(2-(3-fluoropyrrolidin-1-yl)-2-oxoethyl)-4-methylpyrrolo[1,2-a]pyrazin-1(2H)-one]", "Response Recovered (%)": 38}
{"smiles": "Cc1cn(CC(=O)N2CCC(F)C2)c(=O)c2c(-c3ccc(Cl)c(Cl)c3)ccn12", "note": "(centres unmarked) [Example 413, 8-(3,4-dichlorophenyl)-2-(2-(3-fluoropyrrolidin-1-yl)-2-oxoethyl)-4-methylpyrrolo[1,2-a]pyrazin-1(2H)-one]", "Response Recovered (%)": 43}
{"smiles": "Cc1cn(CC(=O)N2CCC(F)C2)c(=O)c2c(-c3ccc(F)c(Cl)c3)ccn12", "note": "(centres unmarked) [Example 414, 8-(3-chloro-4-fluorophenyl)-2-(2-(3-fluoropyrrolidin-1-yl)-2-oxoethyl)-4-methylpyrrolo[1,2-a]pyrazin-1(2H)-one]", "Response Recovered (%)": 112}
{"smiles": "Cc1cn(CC(=O)N2CCC(F)C2)c(=O)c2c(-c3ccc(F)c(Cl)c3)cc(Br)n12", "note": "(centres unmarked) [Example 415, 6-bromo-8-(3-chloro-4-fluorophenyl)-2-(2-(3-fluoropyrrolidin-1-yl)-2-oxoethyl)-4-methylpyrrolo[1,2-a]pyrazin-1(2H)-one]", "Response Recovered (%)": 52}
{"smiles": "Cc1cn(CC(=O)N2CC(C)(F)C2)c(=O)c2c(-c3ccc(F)c(Cl)c3)ccn12", "note": "[Example 416, 8-(3-chloro-4-fluorophenyl)-2-(2-(3-fluoro-3-methylazetidin-1-yl)-2-oxoethyl)-4-methylpyrrolo[1,2-a]pyrazin-1(2H)-one]", "Response Recovered (%)": 110}
{"smiles": "Cc1cn(CC(=O)N2CC(F)(F)C2)c(=O)c2c(-c3ccc(F)c(Cl)c3)ccn12", "note": "[Example 417, 8-(3-chloro-4-fluorophenyl)-2-(2-(3,3-difluoroazetidin-1-yl)-2-oxoethyl)-4-methylpyrrolo[1,2-a]pyrazin-1(2H)-one]", "Response Recovered (%)": 20}
{"smiles": "CCC1(F)CN(C(=O)Cn2cc(C)n3ccc(-c4ccc(F)c(Cl)c4)c3c2=O)C1", "note": "[Example 418, 8-(3-chloro-4-fluorophenyl)-2-(2-(3-ethyl-3-fluoroazetidin-1-yl)-2-oxoethyl)-4-methylpyrrolo[1,2-a]pyrazin-1(2H)-one]", "Response Recovered (%)": 74}
{"smiles": "Cc1cn(CC(=O)N2CC(C)(F)C2)c(=O)c2c(-c3ccc(Cl)c(Cl)c3)ccn12", "note": "[Example 419, 8-(3,4-dichlorophenyl)-2-(2-(3-fluoro-3-methylazetidin-1-yl)-2-oxoethyl)-4-methylpyrrolo[1,2-a]pyrazin-1(2H)-one]", "Response Recovered (%)": 110}
{"smiles": "Cc1cn(CC(=O)N2CC(C)(F)C2)c(=O)c2c(-c3cnc(Cl)c(Cl)c3)ccn12", "note": "[Example 420, 8-(5,6-dichloropyridin-3-yl)-2-(2-(3-fluoro-3-methylazetidin-1-yl)-2-oxoethyl)-4-methylpyrrolo[1,2-a]pyrazin-1(2H)-one]", "Response Recovered (%)": 69}
{"smiles": "Cc1cn(CC(=O)N2CC(F)(CF)C2)c(=O)c2c(-c3cnc(Cl)c(Cl)c3)ccn12", "note": "[Example 421, 8-(5,6-dichloropyridin-3-yl)-2-(2-(3-fluoro-3-(fluoromethyl)azetidin-1-yl)-2-oxoethyl)-4-methylpyrrolo[1,2-a]pyrazin-1(2H)-one]", "Response Recovered (%)": 92}
{"smiles": "CCC1(F)CN(C(=O)Cn2cc(C)n3ccc(-c4cnc(Cl)c(Cl)c4)c3c2=O)C1", "note": "[Example 422, 8-(5,6-dichloropyridin-3-yl)-2-(2-(3-ethyl-3-fluoroazetidin-1-yl)-2-oxoethyl)-4-methylpyrrolo[1,2-a]pyrazin-1(2H)-one]", "Response Recovered (%)": 29}
{"smiles": "O=C(Cn1ccn2c(Br)cc(-c3ccc(F)c(C(F)(F)F)c3)c2c1=O)N1CCC(F)C1", "note": "(centres unmarked) [Example 423, 6-bromo-8-(4-fluoro-3-(trifluoromethyl)phenyl)-2-(2-(3-fluoropyrrolidin-1-yl)-2-oxoethyl)pyrrolo[1,2-a]pyrazin-1(2H)-one]", "Response Recovered (%)": 72}
{"smiles": "CC1(F)CN(C(=O)Cn2cnn3cnc(-c4ccc(F)c(Cl)c4)c3c2=O)C1", "note": "[Example 424, 5-(3-chloro-4-fluorophenyl)-3-(2-(3-fluoro-3-methylazetidin-1-yl)-2-oxoethyl)imidazo[5,1-f][1,2,4]triazin-4(3H)-one]", "Response Recovered (%)": 0.55}
{"smiles": "CC1(F)CN(C(=O)Cn2cnn3cnc(-c4ccc(Cl)c(Cl)c4)c3c2=O)C1", "note": "[Example 425, 5-(3,4-dichlorophenyl)-3-(2-(3-fluoro-3-methylazetidin-1-yl)-2-oxoethyl)imidazo[5,1-f][1,2,4]triazin-4(3H)-one]", "Response Recovered (%)": 27}
{"smiles": "Cc1nc(-c2ccc(F)c(Cl)c2)c2c(=O)n(CC(=O)N3CC(C)(F)C3)ccn12", "note": "[Example 426, 1-(3-chloro-4-fluorophenyl)-7-(2-(3-fluoro-3-methylazetidin-1-yl)-2-oxoethyl)-3-methylimidazo[1,5-a]pyrazin-8(7H)-one]", "Response Recovered (%)": 30}
{"smiles": "Cc1nc(-c2ccc(F)c(C(F)(F)F)c2)c2c(=O)n(CC(=O)N3CCC(F)C3)ccn12", "note": "(centres unmarked) [Example 427, 1-(4-fluoro-3-(trifluoromethyl)phenyl)-7-(2-(3-fluoropyrrolidin-1-yl)-2-oxoethyl)-3-methylimidazo[1,5-a]pyrazin-8(7H)-one]", "Response Recovered (%)": 19}
{"smiles": "Cc1nc(-c2ccc(F)c(Cl)c2)c2c(=O)n(CC(=O)N3CCC(F)C3)ccn12", "note": "(centres unmarked) [Example 428, 1-(3-chloro-4-fluorophenyl)-7-(2-(3-fluoropyrrolidin-1-yl)-2-oxoethyl)-3-methylimidazo[1,5-a]pyrazin-8(7H)-one]", "Response Recovered (%)": 18}
{"smiles": "Cc1nc(-c2ccc(Cl)c(Cl)c2)c2c(=O)n(CC(=O)N3CCC(F)C3)ccn12", "note": "(centres unmarked) [Example 429, 1-(3,4-dichlorophenyl)-7-(2-(3-fluoropyrrolidin-1-yl)-2-oxoethyl)-3-methylimidazo[1,5-a]pyrazin-8(7H)-one]", "Response Recovered (%)": 11}
